Source: US5420343A, “Derivatives of aromatic cyclic alkylethers” (G. D. Searle & Co., priority 1994, dated 1995)

What was measured:
[1] = molecular target: T1, human COX-II (Homo sapiens, UniProt P35354); assay: Human Enzyme Assay, COX-II (recombinant enzyme, PGE2 ELISA); format: biochemical; conditions: 10 μM arachidonic acid, 10-20 min pre-incubation
T1 construct: made in house; host or cells: SF9 insect cells, recombinant baculovirus (pVL1393); coding fragment from Caymen Chemical, Ann Arbor, Mich
T1 sequence (P35354 18-604): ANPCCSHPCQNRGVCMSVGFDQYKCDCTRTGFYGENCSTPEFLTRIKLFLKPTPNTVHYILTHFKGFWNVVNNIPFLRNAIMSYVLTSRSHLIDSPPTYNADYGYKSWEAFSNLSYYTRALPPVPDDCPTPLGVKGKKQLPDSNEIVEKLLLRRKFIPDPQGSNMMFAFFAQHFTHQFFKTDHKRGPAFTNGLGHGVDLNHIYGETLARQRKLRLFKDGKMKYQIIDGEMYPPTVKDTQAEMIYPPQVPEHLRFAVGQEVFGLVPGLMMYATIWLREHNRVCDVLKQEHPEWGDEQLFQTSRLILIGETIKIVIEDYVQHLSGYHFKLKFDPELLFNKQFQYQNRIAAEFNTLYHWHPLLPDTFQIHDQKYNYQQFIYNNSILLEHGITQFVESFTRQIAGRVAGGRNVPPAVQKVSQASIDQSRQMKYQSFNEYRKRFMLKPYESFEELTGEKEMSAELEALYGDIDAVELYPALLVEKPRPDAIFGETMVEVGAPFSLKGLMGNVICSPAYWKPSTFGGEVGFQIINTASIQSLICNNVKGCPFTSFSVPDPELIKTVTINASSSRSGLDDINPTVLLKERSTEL
Experimental: (§1) The compounds of the invention are evaluated with respect to COX-I and COX-II activity in vitro using an enzyme based assay according to the following assay procedure.
(§2) A 2.0 kb fragment containing the coding region for either human or murine COX-I (Caymen Chemical, Ann Arbor, Mich.), or human or murine COX-II (Caymen Chemical, Ann Arbor, Mich.), was cloned into a BamH1 site of the baculovirus transfer vector pVL1393 (Invitrogen, Palo Alto, Calif.) to generate a baculovirus transfer vector. Recombinant baculoviruses were isolated by transfecting 4 μg of baculovirus transfer vector DNA into SF9 cells (2×10e8) (Invitrogen, Palo Alto, Calif.) along with 200 ng of linearized bacium by the phosphate method. See M. D. Summers et al., "A Manual of Methods for Baculovirus Vectors and Insect Cell Culture Procedure," TEXAS AGRICULTURE EXPERIMENTAL STATION BULLETIN, No. 1555 (1987), which is incorporated herein by reference. Recombinant viruses were purified by three rounds of plaque purification, and high titer (10e7-10e8 pfu/ml) stocks of virus were prepared. […]
(§3) COX activity was assayed as PGE2 formed/μg protein/time using an ELISA (Caymen Chemical, Ann Arbor, Mich.) to detect the prostaglandin E2 released. […] The PGE2 formed was measured by standard ELISA technology (Cayman Chemical, Ann Arbor, Mich.). […]

[2] = molecular target: T2, human COX-I (Homo sapiens, UniProt P23219); assay: Human Enzyme Assay, COX-I (recombinant enzyme, PGE2 ELISA); format: biochemical; conditions: 10 μM arachidonic acid, 10-20 min pre-incubation
T2 construct: made in house; host or cells: SF9 insect cells, recombinant baculovirus (pVL1393); coding fragment from Caymen Chemical, Ann Arbor, Mich
T2 sequence (P23219 24-599): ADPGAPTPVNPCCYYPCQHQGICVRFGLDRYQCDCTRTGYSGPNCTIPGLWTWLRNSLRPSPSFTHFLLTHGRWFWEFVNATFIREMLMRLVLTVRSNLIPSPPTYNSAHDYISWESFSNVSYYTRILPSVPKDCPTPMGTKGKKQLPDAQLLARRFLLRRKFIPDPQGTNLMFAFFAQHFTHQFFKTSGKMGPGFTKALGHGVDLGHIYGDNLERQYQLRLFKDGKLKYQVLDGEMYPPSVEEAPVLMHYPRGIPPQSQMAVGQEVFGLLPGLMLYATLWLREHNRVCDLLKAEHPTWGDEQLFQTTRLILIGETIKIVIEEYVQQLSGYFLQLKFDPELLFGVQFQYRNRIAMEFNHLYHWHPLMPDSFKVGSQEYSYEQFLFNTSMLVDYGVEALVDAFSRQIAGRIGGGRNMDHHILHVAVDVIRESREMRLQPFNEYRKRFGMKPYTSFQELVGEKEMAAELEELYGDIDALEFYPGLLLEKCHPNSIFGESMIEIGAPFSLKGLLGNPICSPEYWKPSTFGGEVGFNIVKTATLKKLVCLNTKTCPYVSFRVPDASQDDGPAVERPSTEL
Experimental: as §1, §2, §3

[3] = tested on: COX II enzyme; conditions: E. Meade et al., J. Biol. Chem. 268, 6610 (1993); cited from earlier work
[4] = Futaki et al., Gen. Pharmac. 24, 105 (1993); cited from earlier work
[5] = Futaki et al., Gen. Pharmac. 24, 105 (1993); cited from earlier work; remark: listed apart in the source
[6] = molecular target: T3, cellular COX-II (Homo sapiens, UniProt P35354); assay: Cellular COX-II Assay (Cell Fibroblast Assay); format: cell-based; conditions: IL-1 beta stimulated human fetal dermal fibroblasts; 20 μM arachidonic acid; PGE2 by ELISA
T3 construct: stimulated human fetal dermal fibroblasts (HFDF, derived from primary cell cultures); endogenous in cells; host or cells: human fetal dermal fibroblasts (HFDF), primary culture, stimulated overnight with IL-1 beta
T3 sequence (P35354 18-604): T1 sequence (P35354 18-604)
Experimental: The results for this assay, as well as for the next assay (COX-II Cell Fibroblast Assay) are expressed in terms of COX-I or II activity as an IC50 value (50% inhibitory concentration), as defined as the amount of prostaglandin E2 (PGE2) formed per protein per time in response to the enzyme substrate arachidonic acid.
The compounds of the invention are evaluated with respect to the inhibition of cellular COX-II in vitro according to the following Cellular COX-II Assay (Cell Fibroblast Assay).
Inhibition of cellular COX-II by test compounds is determined using stimulated human fetal dermal fibroblasts (HFDF, derived from primary cell cultures). […] Supernatants are collected and Prostaglandin E2 (PGE2) production is measured by an enzyme-linked immunosorbent assay (ELISA; antibodies produced by Cayman Chemical Company, Ann Arbor, Mich.). […]
The procedure uses information for indomethacin and the rest of the plate in defining the minimum and maximum response. […] For the other compounds, if a response is measured which is less than the response for the unstimulated wells, then this response may be considered to be another estimate of a minimal response. […]

In the case of `CC(C)(C)c1cc(C[C@H]2CCC[C@H]2OCC(=O)O)cc(C(C)(C)C)c1` (relative stereo) [Example 7, (cis)-2-[[2-[3,5-bis(1,1-dimethylethyl) -phenylmethyl]cyclopentyl]oxy]-acetic acid], the IC50 [1] is reported as 1340 nM and the IC50 [2] is reported as over 100 µM.
In the case of `COc1ccc2cc(CC(=O)O)ccc2c1` [6-methoxy-2-napthylacetic acid], the “selective inhibition of COX II enzyme” value [3] is listed as “selectively inhibit the COX II enzyme”.
In the case of `CS(=O)(=O)Nc1ccc([N+](=O)[O-])cc1OC1CCCCC1` [N-(2-cyclohexyloxy-4-nitrophenyl)methanesulfonamide], the anti-inflammatory activity [4] is listed as “anti-inflammatory” and the gastric side effects [5] is listed as “lacks gastric side effects”.
Molecule `CC(C)(C)c1cc(C[C@@H]2CCC[C@H]2OCC(=O)O)cc(C(C)(C)C)c1` (relative stereo) [Example 8, (trans)-2-[[2-[3,5-bis(1,1-dimethylethyl) -phenylmethyl]cyclopentyl]oxy]acetic acid] has an IC50 [1] of over 100000 nM, an IC50 [2] of over 100 µM and an IC50 [6] of 2 nM.
